Results taken from paper PMC5725665, “Discovery of a Highly Selective Cell‐Active Inhibitor of the Histone Lysine Demethylases KDM2/7” (Angewandte Chemie (International Ed. in English), 2017).

Experiments:
KDM2A = target: T1, KDM2A (Homo sapiens, UniProt Q9Y2K7); assay: demethylase activity assay (RapidFire MS / AlphaScreen); format: biochemical; settings: not competitive with 2-OG or peptide substrate
T1 construct: isolated enzyme
T1 sequence (Q9Y2K7 1-517 limits assumed): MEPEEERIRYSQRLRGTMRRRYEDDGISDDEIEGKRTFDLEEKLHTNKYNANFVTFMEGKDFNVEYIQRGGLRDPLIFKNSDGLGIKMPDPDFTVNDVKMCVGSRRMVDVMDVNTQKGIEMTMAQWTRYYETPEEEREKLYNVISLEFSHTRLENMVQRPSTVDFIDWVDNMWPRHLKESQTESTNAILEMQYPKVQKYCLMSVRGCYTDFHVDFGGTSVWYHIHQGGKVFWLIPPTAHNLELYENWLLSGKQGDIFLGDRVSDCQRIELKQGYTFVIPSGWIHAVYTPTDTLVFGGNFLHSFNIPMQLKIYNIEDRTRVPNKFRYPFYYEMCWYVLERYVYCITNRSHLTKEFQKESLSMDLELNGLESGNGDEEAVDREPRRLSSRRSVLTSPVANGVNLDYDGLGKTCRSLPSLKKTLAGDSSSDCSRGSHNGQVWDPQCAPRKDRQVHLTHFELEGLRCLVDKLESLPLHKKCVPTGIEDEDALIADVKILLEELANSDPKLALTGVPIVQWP

JARID1A (KDM5A) = JARID1A (KDM5A) (Homo sapiens, UniProt P29375); assay: biochemical; parameters: AlphaScreen histone demethylase activity assay
Chain of JARID1A (KDM5A) (P29375 whole entry): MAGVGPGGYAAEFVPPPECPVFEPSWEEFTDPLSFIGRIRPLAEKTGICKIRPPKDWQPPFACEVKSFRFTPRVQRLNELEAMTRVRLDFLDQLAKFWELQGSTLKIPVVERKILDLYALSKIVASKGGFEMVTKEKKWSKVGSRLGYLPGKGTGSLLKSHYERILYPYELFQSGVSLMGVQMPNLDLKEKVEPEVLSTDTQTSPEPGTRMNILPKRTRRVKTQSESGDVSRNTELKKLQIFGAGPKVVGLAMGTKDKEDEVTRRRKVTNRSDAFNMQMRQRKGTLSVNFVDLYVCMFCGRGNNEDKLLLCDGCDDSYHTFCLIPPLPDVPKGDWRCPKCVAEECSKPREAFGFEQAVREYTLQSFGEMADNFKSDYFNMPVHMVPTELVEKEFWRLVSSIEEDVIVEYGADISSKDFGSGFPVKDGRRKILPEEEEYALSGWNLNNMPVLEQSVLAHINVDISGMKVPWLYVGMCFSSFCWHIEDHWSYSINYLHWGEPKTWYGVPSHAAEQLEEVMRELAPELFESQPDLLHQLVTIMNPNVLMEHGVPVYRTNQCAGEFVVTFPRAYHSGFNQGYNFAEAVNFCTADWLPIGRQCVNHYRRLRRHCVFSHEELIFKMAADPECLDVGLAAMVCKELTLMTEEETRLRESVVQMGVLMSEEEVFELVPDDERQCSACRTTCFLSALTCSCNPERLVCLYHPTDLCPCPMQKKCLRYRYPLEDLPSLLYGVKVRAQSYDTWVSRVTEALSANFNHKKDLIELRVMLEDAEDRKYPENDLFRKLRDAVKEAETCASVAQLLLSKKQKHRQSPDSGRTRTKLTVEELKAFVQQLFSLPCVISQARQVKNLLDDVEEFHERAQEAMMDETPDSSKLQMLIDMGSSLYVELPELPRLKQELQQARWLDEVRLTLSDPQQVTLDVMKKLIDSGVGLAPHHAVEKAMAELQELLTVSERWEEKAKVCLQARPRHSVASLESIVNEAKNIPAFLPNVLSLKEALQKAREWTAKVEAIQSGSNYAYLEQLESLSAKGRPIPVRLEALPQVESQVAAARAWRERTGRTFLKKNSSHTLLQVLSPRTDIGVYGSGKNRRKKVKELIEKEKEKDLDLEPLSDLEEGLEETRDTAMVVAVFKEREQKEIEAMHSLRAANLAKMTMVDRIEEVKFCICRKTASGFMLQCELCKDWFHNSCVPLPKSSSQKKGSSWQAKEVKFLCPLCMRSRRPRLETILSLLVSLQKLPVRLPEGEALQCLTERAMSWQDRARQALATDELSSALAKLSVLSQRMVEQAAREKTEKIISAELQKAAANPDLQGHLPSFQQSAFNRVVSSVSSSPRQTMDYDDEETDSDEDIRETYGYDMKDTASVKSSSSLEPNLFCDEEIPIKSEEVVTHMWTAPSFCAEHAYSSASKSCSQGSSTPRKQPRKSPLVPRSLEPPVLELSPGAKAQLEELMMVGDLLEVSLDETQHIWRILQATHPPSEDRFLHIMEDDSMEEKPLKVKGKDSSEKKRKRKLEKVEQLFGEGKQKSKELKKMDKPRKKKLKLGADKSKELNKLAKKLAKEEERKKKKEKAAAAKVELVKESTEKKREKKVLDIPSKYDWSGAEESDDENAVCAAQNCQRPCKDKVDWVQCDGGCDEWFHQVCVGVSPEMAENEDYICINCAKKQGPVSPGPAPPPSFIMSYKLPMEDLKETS

JMJD2D (KDM4D) = target: T2, JMJD2D (KDM4D) (Homo sapiens, UniProt Q6B0I6); assay: biochemical; parameters: AlphaScreen histone demethylase activity assay
T2 sequence (Q6B0I6 1-523): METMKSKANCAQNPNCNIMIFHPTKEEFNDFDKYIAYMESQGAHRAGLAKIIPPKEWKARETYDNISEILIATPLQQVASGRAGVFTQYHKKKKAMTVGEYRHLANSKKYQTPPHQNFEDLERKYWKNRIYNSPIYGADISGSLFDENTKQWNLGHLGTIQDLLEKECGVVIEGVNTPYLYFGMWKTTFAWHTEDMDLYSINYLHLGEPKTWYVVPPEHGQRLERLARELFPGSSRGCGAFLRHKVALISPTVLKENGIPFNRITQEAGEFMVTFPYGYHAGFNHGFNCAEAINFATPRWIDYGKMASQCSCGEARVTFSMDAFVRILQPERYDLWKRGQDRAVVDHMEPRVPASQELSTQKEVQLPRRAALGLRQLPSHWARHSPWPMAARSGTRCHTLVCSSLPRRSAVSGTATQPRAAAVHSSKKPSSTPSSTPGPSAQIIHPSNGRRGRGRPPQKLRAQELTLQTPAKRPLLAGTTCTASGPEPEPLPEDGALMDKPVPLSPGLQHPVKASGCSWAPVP

JARID1C (KDM5C) = JARID1C (KDM5C) (Homo sapiens, UniProt P41229); assay: biochemical; parameters: AlphaScreen histone demethylase activity assay; settings: read-out: KDM5C pIC50 (converted)
Chain of JARID1C (KDM5C) (P41229 whole entry): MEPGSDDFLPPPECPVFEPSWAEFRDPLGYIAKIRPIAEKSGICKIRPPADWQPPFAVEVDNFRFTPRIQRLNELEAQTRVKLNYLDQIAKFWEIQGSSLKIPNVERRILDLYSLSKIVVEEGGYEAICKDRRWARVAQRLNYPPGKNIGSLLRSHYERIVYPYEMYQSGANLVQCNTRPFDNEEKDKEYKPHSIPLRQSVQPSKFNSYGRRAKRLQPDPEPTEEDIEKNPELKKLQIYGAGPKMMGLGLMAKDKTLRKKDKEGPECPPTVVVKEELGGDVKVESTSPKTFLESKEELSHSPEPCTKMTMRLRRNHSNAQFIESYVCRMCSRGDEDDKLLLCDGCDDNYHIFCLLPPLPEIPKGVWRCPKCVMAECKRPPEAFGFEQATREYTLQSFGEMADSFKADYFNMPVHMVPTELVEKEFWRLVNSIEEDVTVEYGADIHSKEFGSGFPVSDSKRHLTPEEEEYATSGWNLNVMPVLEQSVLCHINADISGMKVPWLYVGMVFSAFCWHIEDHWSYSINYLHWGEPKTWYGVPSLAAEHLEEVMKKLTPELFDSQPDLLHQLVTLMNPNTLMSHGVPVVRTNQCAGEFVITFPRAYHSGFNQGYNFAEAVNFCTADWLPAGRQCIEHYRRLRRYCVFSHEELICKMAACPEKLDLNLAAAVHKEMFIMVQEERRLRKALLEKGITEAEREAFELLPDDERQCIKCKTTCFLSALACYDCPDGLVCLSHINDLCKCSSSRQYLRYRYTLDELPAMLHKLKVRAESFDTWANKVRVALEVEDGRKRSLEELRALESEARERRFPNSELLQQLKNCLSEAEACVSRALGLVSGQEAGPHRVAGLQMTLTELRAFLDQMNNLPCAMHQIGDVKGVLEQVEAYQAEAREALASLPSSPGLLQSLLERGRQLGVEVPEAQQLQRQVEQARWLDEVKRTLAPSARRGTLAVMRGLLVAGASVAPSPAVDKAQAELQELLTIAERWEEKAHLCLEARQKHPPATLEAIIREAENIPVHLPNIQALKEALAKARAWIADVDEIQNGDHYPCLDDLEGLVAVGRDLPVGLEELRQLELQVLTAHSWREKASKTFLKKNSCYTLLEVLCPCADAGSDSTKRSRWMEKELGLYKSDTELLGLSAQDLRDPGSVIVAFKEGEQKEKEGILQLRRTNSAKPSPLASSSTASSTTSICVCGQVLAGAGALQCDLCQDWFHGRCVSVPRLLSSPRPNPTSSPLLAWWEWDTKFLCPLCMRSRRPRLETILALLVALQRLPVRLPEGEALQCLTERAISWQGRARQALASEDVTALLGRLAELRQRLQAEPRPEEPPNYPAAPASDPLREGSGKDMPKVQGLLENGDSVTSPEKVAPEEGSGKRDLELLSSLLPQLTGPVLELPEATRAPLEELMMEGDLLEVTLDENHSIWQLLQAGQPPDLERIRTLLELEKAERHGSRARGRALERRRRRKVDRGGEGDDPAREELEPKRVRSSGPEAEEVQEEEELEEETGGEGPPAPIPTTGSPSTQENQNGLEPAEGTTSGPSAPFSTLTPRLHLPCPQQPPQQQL

JMJD3A (KDM6B) = JMJD3A (KDM6B) (Homo sapiens, UniProt O15054); assay: biochemical; parameters: AlphaScreen histone demethylase activity assay; settings: read-out: KDM6B pIC50 (converted)
Chain of JMJD3A (KDM6B) (O15054 whole entry): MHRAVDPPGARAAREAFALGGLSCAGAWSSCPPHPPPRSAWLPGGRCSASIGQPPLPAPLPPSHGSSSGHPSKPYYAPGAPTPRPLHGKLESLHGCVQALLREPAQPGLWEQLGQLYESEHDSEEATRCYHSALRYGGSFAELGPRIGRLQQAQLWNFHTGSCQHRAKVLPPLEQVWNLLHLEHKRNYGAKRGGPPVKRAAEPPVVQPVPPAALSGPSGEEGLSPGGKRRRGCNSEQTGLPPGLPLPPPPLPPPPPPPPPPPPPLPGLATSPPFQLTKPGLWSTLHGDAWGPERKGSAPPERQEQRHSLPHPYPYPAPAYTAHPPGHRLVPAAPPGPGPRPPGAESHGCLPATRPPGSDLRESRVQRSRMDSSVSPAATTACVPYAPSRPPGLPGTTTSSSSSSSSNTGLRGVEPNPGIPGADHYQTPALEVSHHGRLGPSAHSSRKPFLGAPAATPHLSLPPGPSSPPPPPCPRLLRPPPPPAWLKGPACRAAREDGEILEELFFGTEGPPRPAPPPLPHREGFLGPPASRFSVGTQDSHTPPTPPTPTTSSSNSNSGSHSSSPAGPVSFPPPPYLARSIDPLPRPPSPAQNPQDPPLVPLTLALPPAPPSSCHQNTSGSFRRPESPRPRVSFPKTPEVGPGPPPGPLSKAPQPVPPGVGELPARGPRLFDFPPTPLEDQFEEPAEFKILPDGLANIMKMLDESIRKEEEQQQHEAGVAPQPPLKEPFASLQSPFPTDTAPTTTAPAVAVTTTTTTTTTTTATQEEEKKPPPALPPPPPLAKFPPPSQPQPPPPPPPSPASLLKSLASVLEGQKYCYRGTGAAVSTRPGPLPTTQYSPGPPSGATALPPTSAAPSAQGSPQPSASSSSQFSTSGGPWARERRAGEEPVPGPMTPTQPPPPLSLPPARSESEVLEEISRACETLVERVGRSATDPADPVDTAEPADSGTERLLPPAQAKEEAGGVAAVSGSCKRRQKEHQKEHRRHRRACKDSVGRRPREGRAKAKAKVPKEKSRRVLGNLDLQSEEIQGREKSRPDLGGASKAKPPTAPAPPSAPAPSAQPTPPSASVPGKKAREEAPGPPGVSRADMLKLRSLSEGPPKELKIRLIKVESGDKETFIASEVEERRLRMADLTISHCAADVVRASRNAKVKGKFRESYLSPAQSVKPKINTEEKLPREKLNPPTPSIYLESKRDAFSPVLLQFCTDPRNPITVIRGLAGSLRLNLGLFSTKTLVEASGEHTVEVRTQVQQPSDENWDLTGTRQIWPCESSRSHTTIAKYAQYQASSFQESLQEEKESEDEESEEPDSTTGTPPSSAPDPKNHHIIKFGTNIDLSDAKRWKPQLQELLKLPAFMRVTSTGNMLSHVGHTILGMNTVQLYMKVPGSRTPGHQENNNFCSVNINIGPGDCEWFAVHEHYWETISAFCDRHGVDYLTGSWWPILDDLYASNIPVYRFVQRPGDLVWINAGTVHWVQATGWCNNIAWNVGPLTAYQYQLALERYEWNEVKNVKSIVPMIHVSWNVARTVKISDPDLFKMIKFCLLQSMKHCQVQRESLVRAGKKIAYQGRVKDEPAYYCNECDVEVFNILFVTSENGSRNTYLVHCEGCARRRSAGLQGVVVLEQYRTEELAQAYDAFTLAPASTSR

JMJD2A (KDM4A) = target: T3, JMJD2A (KDM4A) (Homo sapiens, UniProt O75164); assay: biochemical; parameters: AlphaScreen histone demethylase activity assay; settings: read-out: KDM4A pIC50 (converted)
T3 sequence (O75164 1-1064): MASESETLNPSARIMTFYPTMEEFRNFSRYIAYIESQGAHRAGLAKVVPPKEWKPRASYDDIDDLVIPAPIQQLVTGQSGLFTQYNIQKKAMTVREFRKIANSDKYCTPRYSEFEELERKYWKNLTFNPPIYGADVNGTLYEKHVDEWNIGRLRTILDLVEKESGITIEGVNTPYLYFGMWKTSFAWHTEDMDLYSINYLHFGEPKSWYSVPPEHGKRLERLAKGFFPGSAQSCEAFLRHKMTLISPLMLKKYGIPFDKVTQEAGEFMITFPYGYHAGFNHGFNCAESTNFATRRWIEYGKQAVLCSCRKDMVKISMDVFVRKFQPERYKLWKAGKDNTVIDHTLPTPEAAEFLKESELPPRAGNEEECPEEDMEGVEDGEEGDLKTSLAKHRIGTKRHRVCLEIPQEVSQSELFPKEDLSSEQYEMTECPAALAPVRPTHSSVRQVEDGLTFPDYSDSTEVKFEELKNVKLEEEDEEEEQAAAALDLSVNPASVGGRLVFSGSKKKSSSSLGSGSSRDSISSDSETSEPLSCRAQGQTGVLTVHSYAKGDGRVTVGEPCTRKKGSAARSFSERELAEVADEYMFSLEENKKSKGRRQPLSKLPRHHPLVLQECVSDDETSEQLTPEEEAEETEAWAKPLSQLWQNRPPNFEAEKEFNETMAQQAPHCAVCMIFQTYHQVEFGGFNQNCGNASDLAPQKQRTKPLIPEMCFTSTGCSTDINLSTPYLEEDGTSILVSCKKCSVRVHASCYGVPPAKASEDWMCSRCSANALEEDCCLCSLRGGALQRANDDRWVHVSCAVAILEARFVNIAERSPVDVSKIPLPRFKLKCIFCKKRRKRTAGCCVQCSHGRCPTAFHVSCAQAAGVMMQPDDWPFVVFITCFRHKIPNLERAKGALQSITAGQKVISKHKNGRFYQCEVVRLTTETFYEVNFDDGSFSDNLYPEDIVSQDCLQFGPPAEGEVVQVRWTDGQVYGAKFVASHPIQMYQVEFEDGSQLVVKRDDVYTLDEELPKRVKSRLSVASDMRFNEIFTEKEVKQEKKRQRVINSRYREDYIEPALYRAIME

IC50 (KDM2A): 0.16 µM | inhibition at 50 µM (JARID1A (KDM5A)): -20.3% | IC50 (JARID1A (KDM5A); read-out: KDM5A pIC50 (converted)): > 50.1 µM | inhibition at 10 µM (JMJD2D (KDM4D)): 22.6% | IC50 (JMJD2D (KDM4D); read-out: KDM4D pIC50 (converted)): > 100 µM | IC50 (JARID1C (KDM5C)): 15.7 µM | IC50 (JMJD3A (KDM6B)): 19.8 µM | IC50 (JMJD2A (KDM4A)): > 20 µM
SMILES: CC(=O)N1c2ccccc2[C@@](C#N)(c2ccccc2)[C@@H]1c1cncc(CCCCCCCN2CCCC2)c1 [(S,S)-6]
